The nature of this assay: Venous thrombosis: venous stasis under hypercoagulation (Wessler), thrombus removed and weighed. Format: in vivo, male Wistar rats. The settings on record: Rattus norvegicus, po, suspension in PEG 400, thrombosis induced 4 hours after treatment; for inhibition in vivo at 3 mg/kg: 3 mg/kg administered orally; for inhibition in vivo at 12.5 mg/kg: 12.5 mg/kg administered orally. How it is done: A venous stasis under hypercoagulation is produced according to the technique described by WESSLER et al. (J. Applied Physiol. 1959, p. 943-946). As in the technique described by J. HAUPMAN et al. (Thrombosis and Haemostasis 43(2), 1980, p. 118), the hypercoagulant used is a solution of activated factor X (Xa) supplied by Flow Laboratories (71 Knat per 12.5 ml of physiological serum).
The study is performed on unfasted male Wistar rats weighing 250 to 280 g, divided into groups of 10 animals each. The products to be tested are administered orally as a suspension in PEG 400. A thrombosis is induced 4 hours after this treatment and the thrombus formed is removed and weighed.
The results obtained at doses of 3 mg/kg or 12.5 mg/kg, administered orally, have been collated in Table II. The results obtained with the known products of the above-mentioned prior art have also been collated in this Table.

As usually defined, the inhibition in vivo is the percentage by which the read-out fell short of the control. Low values mean little suppression, high ones strong suppression. Compound `CC(=O)O[C@@H]1[C@@H](OC(C)=O)[C@H](OC(C)=O)CS[C@H]1Oc1cccc(C#N)c1` [Example 27a, 3-cyanophenyl 2,3,4-tri-O-acetyl-5-thio-β-D-xylopyranoside] came in with an inhibition in vivo at 3 mg/kg of 57%.

Compound `O=[N+]([O-])c1ccc(S[C@@H]2SC[C@@H](O)[C@H](O)[C@H]2O)cc1` [Example 2, 4-nitrophenyl 1,5-dithio-β-D-xylopyranoside] came in with an inhibition in vivo at 3 mg/kg of 35% and an inhibition in vivo at 12.5 mg/kg of 78%.

Regarding `N#Cc1ccc(S[C@@H]2SC[C@@H](O)[C@H](O)[C@H]2O)cc1` [Example 1, 4-cyanophenyl 1,5-dithio-β-D-xylopyranoside], the inhibition in vivo at 3 mg/kg worked out at 53% and testing at 12.5 mg/kg gave an inhibition in vivo of 90%.

As for `CC(=O)c1ccc(O[C@@H]2SC[C@@H](O)[C@H](O)[C@H]2O)cc1` [Example 24, 4-acetylphenyl 5-thio-β-D-xylopyranoside], testing at 3 mg/kg gave an inhibition in vivo of 55% and the inhibition in vivo at 12.5 mg/kg stood at 100%.

Compound `CC(=O)O[C@@H]1[C@@H](OC(C)=O)[C@H](OC(C)=O)CS[C@H]1Oc1ccc([N+](=O)[O-])cc1` [Example 23a, 4-nitrophenyl 2,3,4-tri-O-acetyl-5-thio-β-D-xylopyranoside] yielded an inhibition in vivo at 3 mg/kg of 44%.

The compound `N#Cc1ccc(S[C@@H]2SC[C@@H](O)[C@H](O)[C@H]2O)c(C#N)c1` [Example 16, 2,4-dicyanophenyl 1,5-dithio-β-D-xylopyranoside] yielded an inhibition in vivo at 3 mg/kg of 42.5% and an inhibition in vivo at 12.5 mg/kg of 99.5%.

In the case of `CC(=O)O[C@@H]1[C@@H](OC(C)=O)[C@H](Sc2ccc(C#N)cc2)SC[C@H]1OC(C)=O` [Example 1a, 4-cyanophenyl 2,3,4-tri-O-acetyl-1,5-dithio-β-D-xylopyranoside], the inhibition in vivo at 3 mg/kg stood at 30% and at 12.5 mg/kg the inhibition in vivo was 90%.

In turn, `N#Cc1ccc2cc(O[C@@H]3SC[C@@H](O)[C@H](O)[C@H]3O)ccc2c1` [Example 30, 2-(6-cyanonaphthalenyl) 5-thio-β-D-xylopyranoside] returned an inhibition in vivo at 3 mg/kg of 51%.

Compound `O[C@@H]1[C@@H](O)[C@H](Sc2ccc(C(F)(F)F)cc2)SC[C@H]1O` [Example 4, 4-trifluoromethylphenyl 1,5-dithio-β-D-xylopyranoside] showed an inhibition in vivo at 12.5 mg/kg of 66%.

The compound `CC(=O)O[C@@H]1[C@@H](OC(C)=O)[C@H](OC(C)=O)CS[C@H]1Oc1cccc(C(C)=O)c1` [Example 25a, 3-acetylphenyl 2,3,4-tri-O-acetyl-5-thio-β-D-xylopyranoside] yielded an inhibition in vivo at 3 mg/kg of 52%.

As for `Nc1ccc(S[C@@H]2SC[C@@H](O)[C@H](O)[C@H]2O)cc1` [Example 18, 4-aminophenyl 1,5-dithio-β-D-xylopyranoside], 3 mg/kg produced 30% inhibition in vivo and the inhibition in vivo at 12.5 mg/kg was 93%.

`N#Cc1ccccc1S[C@@H]1SC[C@@H](O)[C@H](O)[C@H]1O` [Example 6, 2-cyanophenyl 1,5-dithio-β-D-xylopyranoside] displayed an inhibition in vivo at 3 mg/kg of 35% and an inhibition in vivo at 12.5 mg/kg of 88.6%.

On to `N#Cc1ccc(-c2ccc(S[C@@H]3SC[C@@H](O)[C@H](O)[C@H]3O)cc2)cc1` [Example 14, 4-(4-cyanophenyl)phenyl 1,5-dithio-β-D-xylopyranoside], for which the inhibition in vivo at 3 mg/kg worked out at 27% and at 12.5 mg/kg the inhibition in vivo was 86%.

The compound `O[C@@H]1[C@@H](O)[C@H](Sc2ccc3ccccc3c2)SC[C@H]1O` [Example 3, 2-naphthalenyl 1,5-dithio-β-D-xylopyranoside] gave an inhibition in vivo at 12.5 mg/kg of 38%.

With `O[C@@H]1[C@@H](O)[C@H](Sc2ccccc2C(F)(F)F)SC[C@H]1O` [Example 13, 2-trifluoromethylphenyl 1,5-dithio-β-D-xylopyranoside], the inhibition in vivo at 12.5 mg/kg was determined as 23%.

`Nc1cccc(S[C@@H]2SC[C@@H](O)[C@H](O)[C@H]2O)c1` [Example 21, 3-aminophenyl 1,5-dithio-β-D-xylopyranoside] yielded an inhibition in vivo at 3 mg/kg of 31%.

Turning to `CC(=O)O[C@@H]1[C@@H](OC(C)=O)[C@H](OC(C)=O)CS[C@H]1Oc1ccc(C#N)cc1` [Example 22a, 4-cyanophenyl 2,3,4-tri-O-acetyl-5-thio-β-D-xylopyranoside], at 3 mg/kg the inhibition in vivo was 66%.

For the compound `CC(=O)Nc1ccc(S[C@@H]2SC[C@@H](OC(C)=O)[C@H](OC(C)=O)[C@H]2OC(C)=O)cc1` [Example 19a, 4-acetamidophenyl 2,3,4-tri-O-acetyl-1,5dithio-β-D-xylopyranoside], the inhibition in vivo at 3 mg/kg was 66%.

`N#Cc1ccc2cc(S[C@@H]3SC[C@@H](O)[C@H](O)[C@H]3O)ccc2c1` [Example 8, 2-(6-cyanonaphthalenyl) 1,5-dithio-β-D-xylopyranoside] returned an inhibition in vivo at 3 mg/kg of 31% and an inhibition in vivo at 12.5 mg/kg of 94.7%.

In turn, `CC(=O)Nc1ccc(S[C@@H]2SC[C@@H](O)[C@H](O)[C@H]2O)cc1` [Example 19, 4-acetamidophenyl 1,5-dithio-β-D-xylopyranoside] yielded an inhibition in vivo at 3 mg/kg of 61% and an inhibition in vivo at 12.5 mg/kg of 93%.

Take `N#Cc1cccc(O[C@@H]2SC[C@@H](O)[C@H](O)[C@H]2O)c1` [Example 27, 3-cyanophenyl 5-thio-β-D-xylopyranoside]: the inhibition in vivo at 3 mg/kg was 66% and the inhibition in vivo at 12.5 mg/kg came out at 98%.

Compound `O=C(c1ccc(S[C@@H]2SC[C@@H](O)[C@H](O)[C@H]2O)cc1)C(F)(F)F` [Example 20, 4-trifluoroacetylphenyl 1,5-dithio-β-D-xylopyranoside] had an inhibition in vivo at 3 mg/kg of 49%.

As to `CC(=O)c1cccc(O[C@@H]2SC[C@@H](O)[C@H](O)[C@H]2O)c1` [Example 25, 3-acetylphenyl 5-thio-β-D-xylopyranoside], at 3 mg/kg the inhibition in vivo was 44.5%.

Take `O=[N+]([O-])c1ccccc1O[C@@H]1SC[C@@H](O)[C@H](O)[C@H]1O` [Example 28, 2-nitrophenyl 5-thio-β-D-xylopyranoside]: the inhibition in vivo at 3 mg/kg stood at 51% and the inhibition in vivo at 12.5 mg/kg stood at 94%.

In turn, `CC(=O)O[C@@H]1[C@@H](OC(C)=O)[C@H](OC(C)=O)CS[C@H]1Oc1ccc2ccccc2c1C#N` [Example 31a, 2-(1-cyanonaphthalenyl) 2,3,4-tri-O-acetyl-5-thio-β-D-xylopyranoside] returned an inhibition in vivo at 3 mg/kg of 44.5%.

`N#Cc1c(O[C@@H]2SC[C@@H](O)[C@H](O)[C@H]2O)ccc2ccccc12` [Example 31, 2-(1-cyanonaphthalenyl) 5-thio-β-D-xylopyranoside] had an inhibition in vivo at 3 mg/kg of 28%.

`O=[N+]([O-])c1ccccc1S[C@@H]1SC[C@@H](O)[C@H](O)[C@H]1O` [Example 7, 2-nitrophenyl 1,5-dithio-β-D-xylopyranoside] came in with an inhibition in vivo at 3 mg/kg of 33% and an inhibition in vivo at 12.5 mg/kg of 96.7%.

As for `COc1cc(S[C@@H]2SC[C@@H](O)[C@H](O)[C@H]2O)cc(OC)c1OC` [Example 10, 3,4,5-trimethoxyphenyl 1,5-dithio-β-D-xylopyranoside], at 12.5 mg/kg the inhibition in vivo was 36.5%.

As to `O=[N+]([O-])c1cccc(S[C@@H]2SC[C@@H](O)[C@H](O)[C@H]2O)c1` [Example 12, 3-nitrophenyl 1,5-dithio-β-D-xylopyranoside], the inhibition in vivo at 12.5 mg/kg was 69%.

In turn, `CC(=O)O[C@@H]1[C@@H](OC(C)=O)[C@H](Sc2ccc(C#N)cc2C#N)SC[C@H]1OC(C)=O` [Example 16a, 2,4-dicyanophenyl 2,3,4-tri-O-acetyl-1,5-dithio-β-D-xylopyranoside] displayed an inhibition in vivo at 12.5 mg/kg of 72.8%.

The compound `CC(=O)c1ccc(S[C@@H]2SC[C@@H](O)[C@H](O)[C@H]2O)cc1` [Example 11, 4-acetylphenyl 1,5-dithio-β-D-xylopyranoside] displayed an inhibition in vivo at 3 mg/kg of 47% and an inhibition in vivo at 12.5 mg/kg of 98.3%.

`CC(=O)c1ccccc1O[C@@H]1SC[C@@H](O)[C@H](O)[C@H]1O` [Example 29, 2-acetylphenyl 5-thio-β-D-xylopyranoside] gave an inhibition in vivo at 3 mg/kg of 26%.

On to `COc1cc(S[C@@H]2SC[C@@H](OC(C)=O)[C@H](OC(C)=O)[C@H]2OC(C)=O)cc(OC)c1OC` [Example 10a, 3,4,5-trimethoxyphenyl 2,3,4-tri-O-acetyl-1,5-dithio-β-D-xylopyranoside], for which the inhibition in vivo at 12.5 mg/kg came out at 62%.

`N#Cc1ccccc1O[C@@H]1SC[C@@H](O)[C@H](O)[C@H]1O` [Example 26, 2-cyanophenyl 5-thio-β-D-xylopyranoside] showed an inhibition in vivo at 3 mg/kg of 63.5% and an inhibition in vivo at 12.5 mg/kg of 96%.

Compound `O=[N+]([O-])c1ccc(O[C@@H]2SC[C@@H](O)[C@H](O)[C@H]2O)cc1` [Example 23, 4-nitrophenyl 5-thio-β-D-xylopyranoside] had an inhibition in vivo at 3 mg/kg of 37.5% and an inhibition in vivo at 12.5 mg/kg of 94%.

In turn, `N#Cc1ccc(O[C@@H]2SC[C@@H](O)[C@H](O)[C@H]2O)cc1` [Example 22, 4-cyanophenyl 5-thio-β-D-xylopyranoside] returned an inhibition in vivo at 3 mg/kg of 57%.

As for `N#Cc1cc(C#N)c(S[C@@H]2SC[C@@H](O)[C@H](O)[C@H]2O)c(C#N)c1` [Example 17, 2,4,6-tricyanophenyl 1,5-dithio-β-D-xylopyranoside], the inhibition in vivo at 3 mg/kg was 8% and the inhibition in vivo at 12.5 mg/kg stood at 40%.

Regarding `N#Cc1cccc(S[C@@H]2SC[C@@H](O)[C@H](O)[C@H]2O)c1` [Example 5, 3-cyanophenyl 1,5-dithio-β-D-xylopyranoside], testing at 3 mg/kg gave an inhibition in vivo of 28% and at 12.5 mg/kg the inhibition in vivo was 79.5%.

The values above are taken from US5101048A, “β-D-phenylthioxylosides, their method of preparation and their use as therapeutic agents” (Fournier Industrie et Sante, priority 1988, dated 1992).
